We go through 31 molecules from ChEMBL document CHEMBL1153123, “Antiplasmodial activity of piperazine sulfonamides” (Bioorg Med Chem Lett, 2010).

Usually EC50 stands for the midpoint of the concentration-response curve. Read a high EC50 as lower potency in that assay.

In test [1] the test system is Plasmodium falciparum. Nature of the test: Antiplasmodial activity against Plasmodium falciparum Dd2 in human O+ erythrocytes after 72 hrs by DAPI staining. The format is functional, organism-based. As to conditions: Dd2, 72 h.
The test system of test [2] is Plasmodium falciparum. Nature of the test: Antiplasmodial activity against Plasmodium falciparum 3D7 in human O+ erythrocytes after 72 hrs by DAPI staining. It is filed as functional, organism-based. The settings on record: 3D7, 72 h.

Turning to `O=[N+]([O-])c1ccc(S(=O)(=O)N2CCN(Cc3ccccc3)CC2)cc1`, the EC50 with Plasmodium falciparum [1] is greater than 10000 nM.

In the test with Plasmodium falciparum [1], `O=[N+]([O-])c1ccc(S(=O)(=O)N2CCN(C(=S)NCCc3ccccc3)CC2)cc1` had an EC50 of 211 nM.

Consider `O=[N+]([O-])c1ccc(S(=O)(=O)N2CCN(C(=S)NCC3CCCO3)CC2)cc1` (stereo not drawn), for which the EC50 stood at 313 nM in the test with Plasmodium falciparum [2] and 337 nM in the test on Plasmodium falciparum [1]. As for `O=S(=O)(c1ccc(Cl)cc1)N1CCN(C(=S)NCC2CCCO2)CC1` (stereo not drawn), the figures for the 50% effective concentration (EC50) with Plasmodium falciparum [2] and in the test on Plasmodium falciparum [1] were 667 nM and 860 nM, respectively.

As for `COCCNC(=S)N1CCN(S(=O)(=O)c2ccc([N+](=O)[O-])cc2)CC1`, the EC50 in the test with Plasmodium falciparum [2] was 310 nM; in the test on Plasmodium falciparum [1], 354 nM. Regarding `O=S(=O)(c1ccc2c(c1)OCCO2)N1CCN(C(=S)NCc2ccccc2)CC1`, the values for the EC50 in the test with Plasmodium falciparum [2] and in the test on Plasmodium falciparum [1] were 6490 nM and greater than 10000 nM, respectively.

With `O=C(NCc1ccco1)N1CCN(S(=O)(=O)c2ccc(Cl)cc2)CC1`, the EC50 is 2550 nM in the test with Plasmodium falciparum [2] and 2300 nM in the test on Plasmodium falciparum [1]. For `CS(=O)(=O)N1CCN(C(=S)NCc2ccco2)CC1`, in that order: greater than 10000 nM and greater than 10000 nM. Regarding `O=S(=O)(c1ccccc1F)N1CCN(C(=S)NCc2ccccc2)CC1`, the 50% effective concentration (EC50) in the test on Plasmodium falciparum [2] turned out to be 2410 nM; with Plasmodium falciparum [1] it was 3130 nM. In the test on Plasmodium falciparum [1], `O=S(=O)(c1ccc(Cl)cc1)N1CCN(C(=S)NCc2ccc(Cl)cc2)CC1` displayed a concentration giving a half-maximal response (EC50) of 400 nM. As to `C/N=C(/SCc1ccccc1)N1CCN(S(=O)(=O)c2ccc([N+](=O)[O-])cc2)CC1`, the EC50 turned out to be 11400 nM in the test with Plasmodium falciparum [2] and 13000 nM in the test with Plasmodium falciparum [1].

On to `O=S(=O)(c1ccccc1)N1CCN(C(=S)NCc2ccccc2)CC1`, for which the concentration for a half-maximal effect (EC50) worked out at 1860 nM with Plasmodium falciparum [2] and 1920 nM in the test with Plasmodium falciparum [1].

For the molecule `O=S(=O)(c1ccc(Br)cc1Cl)N1CCN(C(=S)NCc2ccccc2)CC1`, the EC50 came to 830 nM in the test on Plasmodium falciparum [2] and 873 nM in the test with Plasmodium falciparum [1]. On to `O=C(NCc1ccco1)N1CCN(S(=O)(=O)c2ccc([N+](=O)[O-])cc2)CC1`, for which the EC50 with Plasmodium falciparum [2] is 6410 nM; with Plasmodium falciparum [1], 4480 nM. Taken in the same sequence, the figures for `O=[N+]([O-])c1ccc(S(=O)(=O)N2CCC(C(=S)NCc3ccccc3)CC2)cc1` were 6060 nM and 6190 nM.

In the case of `CCOc1ccc(S(=O)(=O)N2CCN(C(=S)NCc3ccccc3)CC2)cc1`, the figures for the concentration for a half-maximal effect (EC50) in the test with Plasmodium falciparum [2] and in the test on Plasmodium falciparum [1] were 1230 nM and 1960 nM, respectively. As to `O=[N+]([O-])c1ccc(S(=O)(=O)N2CCN(C(=S)CCc3ccccc3)CC2)cc1`, the EC50 is 1250 nM with Plasmodium falciparum [2] and 1690 nM with Plasmodium falciparum [1].

`O=S(=O)(c1cccc(F)c1)N1CCN(C(=S)NCc2ccccc2)CC1`: the EC50 with Plasmodium falciparum [2] is 1470 nM; with Plasmodium falciparum [1], 1970 nM. Consider `Cc1cc(Nc2ccccc2)nc(N2CCN(S(=O)(=O)c3ccc([N+](=O)[O-])cc3)CC2)n1`, for which the concentration for a half-maximal effect (EC50) was found to be 11100 nM with Plasmodium falciparum [2] and 10000 nM with Plasmodium falciparum [1]. Taken in the same sequence, the figures for `Cc1cc(NCc2ccccc2)nc(N2CCN(S(=O)(=O)c3ccc([N+](=O)[O-])cc3)CC2)n1` were 3970 nM and 5810 nM. In the case of `O=[N+]([O-])c1ccc(S(=O)(=O)N2CCN(C/C=C/c3ccccc3)CC2)cc1`, the EC50 with Plasmodium falciparum [1] came out at 6050 nM. Turning to `O=[N+]([O-])c1ccc(S(=O)(=O)N2CCN(C(=S)NCc3ccccc3)CC2)cc1`, the EC50 in the test on Plasmodium falciparum [2] worked out at 56 nM; in the test on Plasmodium falciparum [1], 103 nM.

In the case of `O=[N+]([O-])c1ccc(S(=O)(=O)N2CCN(C(=S)NCc3ccco3)CC2)cc1`, the EC50 in the test on Plasmodium falciparum [2] was determined as 64 nM; with Plasmodium falciparum [1], 117 nM. Taken in the same sequence, the figures for `O=C(NCc1ccccc1)C1CCN(S(=O)(=O)c2ccc([N+](=O)[O-])cc2)CC1` were 5950 nM and 3740 nM. On to `N=C(NCc1ccccc1)N1CCN(S(=O)(=O)c2ccc([N+](=O)[O-])cc2)CC1`, for which the EC50 with Plasmodium falciparum [2] and with Plasmodium falciparum [1] was greater than 25000 nM in each case. As for `O=C(CCc1ccccc1)N1CCN(S(=O)(=O)c2ccc([N+](=O)[O-])cc2)CC1`, the EC50 with Plasmodium falciparum [2] came to 13500 nM; in the test with Plasmodium falciparum [1], 13600 nM.

With `O=S(=O)(c1ccc(F)cc1)N1CCN(C(=S)NCc2ccccc2)CC1`, the concentration giving a half-maximal response (EC50) in the test with Plasmodium falciparum [2] turned out to be 447 nM; in the test with Plasmodium falciparum [1], 492 nM. Taken in the same sequence, the figures for `CCNC(=S)N1CCN(S(=O)(=O)c2ccccc2C(F)(F)F)CC1` were greater than 10000 nM and greater than 10000 nM. For `O=S(=O)(c1ccc(F)c(F)c1F)N1CCN(C(=S)NCc2ccccc2)CC1`, in that order: 1520 nM and 1610 nM.

As to `O=S(=O)(c1ccc(Cl)cc1)N1CCN(C(=S)NCc2ccco2)CC1`, the 50% effective concentration (EC50) came to 615 nM with Plasmodium falciparum [2] and 544 nM in the test with Plasmodium falciparum [1].

In the case of `O=S(=O)(c1c(Cl)cc(Br)cc1Cl)N1CCN(C(=S)NCc2ccccc2)CC1`, the results for the 50% effective concentration (EC50) in the test on Plasmodium falciparum [2] and in the test on Plasmodium falciparum [1] were 2670 nM and 4410 nM, respectively.
